# Measurements taken from patent US20230374177A1, “CYTOSOLIC MICROPARTICLES, PHAGOCYTIC CELLS COMPRISING THE SAME, AND METHODS FOR TREATING DISEASE COMPRISING THE SAME” (Florida State University Research Foundation, Inc., priority 2022, published 2023).
# Test system: RAW264.7 macrophages
# Assay: Effects of factors on phagosomal rupture at 22° C.
# Assay type: cell-based
# Settings: 22° C. cold shock; chloroquine 100 μM 30 min, tetrandrine 5 μM 30 min, colchicine 5 μM 3 h, LLOMe 1 mM 30 min, hypotonic shock 0.6×PBS
# Experimental: Incubation of macrophages with microparticles. […] A prewarmed suspension of macrophages in the complete medium (3.5×10^5 cells/mL, 1 mL, 37° C.) supplemented with LPS (1 μg/mL) was added into a chamber and incubated (5% CO2, 37° C.) for the specified period.
# Control. […] After 3 h, the complete medium was replaced with PBS (1 mL, 22° C.) and maintained for 2 min before being imaged.
# Hypotonic shock. 0.6×PBS was prepared by mixing PBS with H2O (volume ratio=6:4). […] After 3 h, the complete medium was replaced with the 0.6×PBS (1 mL, 22° C.) and maintained for 2 min before being imaged.
# Chloroquine. […] After 2.5 h, chloroquine (10 mM in DMEM) was added to the culture to reach 100 μM and further incubated (5% CO2, 37° C.) for 30 min. The complete medium was replaced with PBS (1 mL, 22° C.) and maintained for 2 min before being imaged.
# Tetrandrine. […] After 2.5 h, tetrandrine (5 mM in DMSO) was added to the culture to reach 5 μM and further incubated (5% CO2, 37° C.) for 30 min. The complete medium was replaced with PBS (1 mL, 22° C.) and maintained for 2 min before being imaged.
# Colchicine. […] After 3 h, colchicine (2.5 mM in DMEM) was added to the culture at 5 μM and further incubated (5% CO2, 37° C.) for 3 h. The complete medium was replaced with PBS (1 mL, 22° C.) and maintained for 2 min before being imaged.
# LLOMe. […] After 2.5 h, LLOMe (10 mM in DMEM) was added to the culture at 1 mM and further incubated (5% CO2, 37° C.) for 30 min. The complete medium was replaced with PBS (1 mL, 22° C.) and maintained for 2 min before being imaged.
# For each factor, an experiment was conducted to study its effect. […] Exposure of the macrophages to each factor was conducted either during or before the cold shock.
row,Compound,effect on percentage of phagosomal rupture at 22° C. compared to the control
1,COc1cc2c(c(OC)c1OC)-c1ccc(OC)c(=O)cc1[C@@H](NC(C)=O)CC2 [Colchicine],insignificant
2,"COC(=O)[C@H](CC(C)C)NC(=O)[C@@H](N)CC(C)C.Cl [LLOMe, L-Leucyl-L-leucine methyl ester hydrochloride]",significantly increased
3,CCN(CC)CCCC(C)Nc1ccnc2cc(Cl)ccc12 (stereo not drawn) [Chloroquine],did not induce a significant effect
